Source: the NIST ThermoML archive (doi:10.1021/je700265d)
Several values for one entry are separate records, joined by “and”; a condition that tells them apart may be missing. Identical values can stand only once.

Experiment: mn = molality of the nth substance listed, in mol/kg
Settings: Liquid, Vibrating tube method

[Na+].[OH-] [sodium hydroxide] + O
mass density
Settings	2000 kPa	10000 kPa
323.15 K, m1 = 0.09892	993.08 kg/m3 [middle of 4 runs]	–
323.15 K, m1 = 0.1004	–	996.538 kg/m3 and 996.527 kg/m3
323.15 K, m1 = 0.1011	–	996.561 kg/m3 and 996.552 kg/m3
323.15 K, m1 = 0.1999	997.265 kg/m3	–
323.15 K, m1 = 0.2008	–	1000.68 kg/m3 and 1000.69 kg/m3
323.15 K, m1 = 0.4993	–	1012.82 kg/m3
323.15 K, m1 = 0.4998	1009.52 kg/m3 and 1009.53 kg/m3	–
323.15 K, m1 = 1.002	–	1032.59 kg/m3
323.15 K, m1 = 1.006	1029.58 kg/m3 and 1029.59 kg/m3	–
323.15 K, m1 = 1.998	–	1069.82 kg/m3
323.15 K, m1 = 2.006	1067.14 kg/m3	–
323.15 K, m1 = 2.994	1102.23 kg/m3 and 1102.25 kg/m3	–
323.15 K, m1 = 2.999	–	1104.9 kg/m3
323.15 K, m1 = 4	1135.56 kg/m3 and 1135.59 kg/m3	1137.82 kg/m3
323.15 K, m1 = 4.927	1164.37 kg/m3 and 1164.36 kg/m3	–
323.15 K, m1 = 5.002	–	1168.71 kg/m3
323.15 K, m1 = 5.963	1194.98 kg/m3	–
323.15 K, m1 = 5.984	–	1197.21 kg/m3
323.15 K, m1 = 6.887	1219.57 kg/m3	–
323.15 K, m1 = 6.998	–	1224.73 kg/m3
323.15 K, m1 = 8	1248.12 kg/m3	–
323.15 K, m1 = 8.191	–	1254.93 kg/m3
373.15 K, m1 = 0.1071	–	967.434 kg/m3 and 967.432 kg/m3
373.15 K, m1 = 0.2063	–	971.522 kg/m3
373.15 K, m1 = 0.5006	–	983.362 kg/m3
373.15 K, m1 = 1.007	–	1003.1 kg/m3
373.15 K, m1 = 1.998	–	1039.6 kg/m3
373.15 K, m1 = 3	–	1074.35 kg/m3
373.15 K, m1 = 3.968	–	1105.88 kg/m3
373.15 K, m1 = 4.987	–	1137.02 kg/m3
373.15 K, m1 = 5.995	–	1165.76 kg/m3
373.15 K, m1 = 7	–	1192.66 kg/m3 and 1192.78 kg/m3
373.15 K, m1 = 8.191	–	1222.53 kg/m3
423.15 K, m1 = 0.102	–	926.887 kg/m3 and 926.893 kg/m3
423.15 K, m1 = 0.2019	–	931.217 kg/m3
423.15 K, m1 = 0.4993	–	943.749 kg/m3
423.15 K, m1 = 1.004	–	964.154 kg/m3
423.15 K, m1 = 2.002	–	1002.15 kg/m3
423.15 K, m1 = 3.005	–	1037.71 kg/m3
423.15 K, m1 = 4.007	–	1070.87 kg/m3
423.15 K, m1 = 5.013	–	1101.94 kg/m3 and 1102 kg/m3
423.15 K, m1 = 5.983	–	1129.99 kg/m3
423.15 K, m1 = 6.994	–	1157.33 kg/m3
423.15 K, m1 = 7.997	–	1182.78 kg/m3
473.15 K, m1 = 0.1008	–	875.988 kg/m3 and 876.005 kg/m3 and 876.003 kg/m3
473.15 K, m1 = 0.1998	–	880.725 kg/m3
473.15 K, m1 = 0.498	–	894.456 kg/m3 and 894.426 kg/m3
473.15 K, m1 = 1	–	916.262 kg/m3
473.15 K, m1 = 1.996	–	956.424 kg/m3 and 956.451 kg/m3
473.15 K, m1 = 3.001	–	993.727 kg/m3
473.15 K, m1 = 3.979	–	1027.36 kg/m3
473.15 K, m1 = 4.99	–	1059.7 kg/m3
473.15 K, m1 = 5.981	–	1089.06 kg/m3
473.15 K, m1 = 6.966	–	1116.25 kg/m3 and 1116.27 kg/m3
473.15 K, m1 = 7.982	–	1142.4 kg/m3
523.15 K, m1 = 0.1	–	811.722 kg/m3 and 811.711 kg/m3
523.15 K, m1 = 0.2004	–	817.364 kg/m3
523.15 K, m1 = 0.4995	–	833.124 kg/m3 and 833.104 kg/m3
523.15 K, m1 = 1.002	–	857.633 kg/m3 and 857.68 kg/m3
523.15 K, m1 = 2.005	–	902.001 kg/m3
523.15 K, m1 = 3.005	–	942.171 kg/m3
523.15 K, m1 = 3.999	–	977.951 kg/m3
523.15 K, m1 = 5.003	–	1011.55 kg/m3
523.15 K, m1 = 6.005	–	1042.56 kg/m3 and 1042.64 kg/m3
523.15 K, m1 = 7.002	–	1071.15 kg/m3 and 1071.04 kg/m3
523.15 K, m1 = 7.999	–	1097.71 kg/m3 and 1097.55 kg/m3
573.15 K, m1 = 0.1122	–	724.654 kg/m3 and 724.632 kg/m3
573.15 K, m1 = 0.2173	–	732.398 kg/m3 and 732.406 kg/m3
573.15 K, m1 = 0.5495	–	754.575 kg/m3 and 754.588 kg/m3
573.15 K, m1 = 1.105	–	787.201 kg/m3 and 787.19 kg/m3
573.15 K, m1 = 1.996	–	832.976 kg/m3 and 833.161 kg/m3
573.15 K, m1 = 3.004	–	878.767 kg/m3
573.15 K, m1 = 3.998	–	918.89 kg/m3
573.15 K, m1 = 4.999	–	955.585 kg/m3
573.15 K, m1 = 6.004	–	989.12 kg/m3
573.15 K, m1 = 6.999	–	1019.78 kg/m3
573.15 K, m1 = 7.997	–	1047.99 kg/m3
